Measurements taken from patent US12533357B2, “Treatment for acute myeloid leukemia or myelodysplastic syndrome” (UNIVERSITY HEALTH NETWORK, priority 2019, dated 2026).

Assays:
Experiment in all cases: In vitro cytotoxicity (IC50) assay, alamarBlue
Format in all cases: cell-based
[1] = test system: JURKAT; conditions: T-ALL
Protocol: (§1) Cells were seeded in triplicate at 10,000 per 80 uL, into 96-well plates 24 hours before compound overlay and cultured at 37° C. and 5% CO2. Compound (I) was prepared as a 10 mM stock in 100% DMSO and diluted with RPMI 1640 cell growth medium containing 10% FBS such that the final concentrations ranged from 50 pM to 15 uM. Aliquots (20 uL) from each concentration were overlaid to 80 uL of pre-seeded cells to achieve final concentrations of 10 pM to 3 uM. After 3 days, cell viability in each well was assessed by alamarBlue assay according to the manufacturer's instruction (ThermoFisher Scientific). Absorbance was read at 570 nm using a SpectraPlus microplate reader (Molecular Devices Corporation). alamarBlue absorbance values were adjusted by subtracting the average of the baseline readings from untreated cells assessed one day after cell seeding. The percentage (%) of relative inhibition of cell viability was calculated by comparing to DMSO-treated cells. IC50s were calculated using GraphPad PRISM software (GraphPad Software Inc.).

[2] = test system: OCI-AML3; conditions: OCI-AML3, AML M4
Protocol: as §1

[3] = test system: OCI-AML4; conditions: OCI-AML4, AML M4
Protocol: as §1

[4] = test system: OCI-LY10; conditions: OCI-LY10, NHL ABC-DLBCL
Protocol: as §1

[5] = test system: OCI-LY3; conditions: OCI-LY3, NHL ABC-DLCBL
Protocol: as §1

[6] = test system: SU-DHL-8; conditions: SU-DHL-8, NHL DLBCL
Protocol: as §1

[7] = test system: THP-1; conditions: THP-1, AML M5
Protocol: as §1

[8] = Homo sapiens, 72 h, 3 days, read-out: Compound (I) IC50

In the case of COc1ccc2c(c1)[C@]1(C[C@H]1c1ccc3c(/C=C/c4ccc(CN5C[C@@H](C)O[C@@H](C)C5)cc4)n[nH]c3c1)C(=O)N2 [Compound (I), (1R,2S)-2-(3-((E)-4-(((2S,6R)-2,6-dimethylmorpholino)methyl)styryl)-1H-indazol-6-yl)-5′-methoxyspiro[cyclopropane-1,3′-indolin]-2′-one], the IC50 [1, 8] is reported as 0.6 nM, the “Response to Compound (I)” value [1] is reported as “death” and the “Response to Compound (I)” value [2] is reported as “mitotic defects +”. For the same molecule, the “Response to Compound (I)” value [3] was “mitotic defects +”, the IC50 [4, 8] was 6.8 nM and the “Response to Compound (I)” value [4] was “death”. For the same molecule, the “Response to Compound (I)” value [5] was “mitotic defects +”, the IC50 [6, 8] was 12 nM and the “Response to Compound (I)” value [6] was “death”. For the same molecule, the IC50 [7, 8] was 1.4 nM and the “Response to Compound (I)” value [7] was “death”.
